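A five-concentration, 48-hour dose response in 96-well plates underlies each endpoint, interpolated linearly between surrounding concentrations. At the TGI there is no net growth.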
Legend:
Test in all cases: inhibition of tumour cell growth, NCI panel, 48 h
IGROV1 ovarian = test system: IGROV1 ovarian
TK-10 renal = test system: TK-10 renal
HS 578T breast = test system: HS 578T breast
PC-3 prostate = test system: PC-3 prostate
NCI-H226 lung = test system: NCI-H226 lung
SF-268 CNS = test system: SF-268 CNS
HCT-116 colon = test system: HCT-116 colon
ACHN renal = test system: ACHN renal
KM12 colon = test system: KM12 colon
BT-549 breast = test system: BT-549 breast
A549 NSCLC = test system: A549 NSCLC
OVCAR-3 ovarian = test system: OVCAR-3 ovarian
NCI-H522 lung = test system: NCI-H522 lung
MDA-MB-231 breast = test system: MDA-MB-231 breast
RPMI-8226 leukemia = test system: RPMI-8226 leukemia

SMILES: COc1cccc(C(=O)N[C@@H]2[C@H](O)[C@@H](CO)O[C@H]2n2cnc3c(N)ncnc32)c1
- TGI (IGROV1 ovarian): > 100 µM
- TGI (TK-10 renal): > 100 µM
- TGI (HS 578T breast): > 100 µM
- TGI (PC-3 prostate): > 100 µM
- TGI (NCI-H226 lung): > 100 µM
- TGI (SF-268 CNS): > 100 µM
- TGI (HCT-116 colon): > 100 µM
- TGI (ACHN renal): > 100 µM
- TGI (KM12 colon): > 100 µM
- TGI (BT-549 breast): > 100 µM
- TGI (A549 NSCLC): > 100 µM
- TGI (OVCAR-3 ovarian): > 100 µM
- TGI (NCI-H522 lung): > 100 µM
- TGI (MDA-MB-231 breast): > 100 µM
- TGI (RPMI-8226 leukemia): > 100 µM

SMILES: CC1=C(C(=O)NC(C)(C)C)CC(C(=O)NC(C)(C)C)C(C)N1 (stereo not given)
- TGI (IGROV1 ovarian): > 100 µM
- TGI (TK-10 renal): > 100 µM
- TGI (HS 578T breast): > 100 µM
- TGI (PC-3 prostate): > 100 µM
- TGI (NCI-H226 lung): > 100 µM
- TGI (SF-268 CNS): > 100 µM
- TGI (HCT-116 colon): > 100 µM
- TGI (ACHN renal): > 100 µM
- TGI (KM12 colon): > 100 µM
- TGI (BT-549 breast): > 100 µM
- TGI (A549 NSCLC): > 100 µM
- TGI (OVCAR-3 ovarian): > 100 µM
- TGI (NCI-H522 lung): > 100 µM
- TGI (MDA-MB-231 breast): > 100 µM
- TGI (RPMI-8226 leukemia): > 100 µM

SMILES: Oc1ccccc1-n1nc2ccc3nonc3c2n1
- TGI (IGROV1 ovarian): > 100 µM
- TGI (TK-10 renal): > 100 µM
- TGI (HS 578T breast): > 100 µM
- TGI (PC-3 prostate): > 100 µM
- TGI (NCI-H226 lung): > 100 µM
- TGI (SF-268 CNS): > 100 µM
- TGI (HCT-116 colon): > 100 µM
- TGI (ACHN renal): > 100 µM
- TGI (KM12 colon): > 100 µM
- TGI (BT-549 breast): > 100 µM
- TGI (A549 NSCLC): > 100 µM
- TGI (OVCAR-3 ovarian): > 100 µM
- TGI (NCI-H522 lung): > 100 µM
- TGI (MDA-MB-231 breast): > 100 µM
- TGI (RPMI-8226 leukemia): > 100 µM

SMILES: S=C(Nc1cccc(C2(N3CCCCC3)CCCCC2)c1)Nc1cccc(C2(N3CCCCC3)CCCCC2)c1
- TGI (IGROV1 ovarian): > 100 µM
- TGI (TK-10 renal): 7.39 µM
- TGI (HS 578T breast): > 100 µM
- TGI (PC-3 prostate): > 100 µM
- TGI (NCI-H226 lung): 78.5 µM
- TGI (SF-268 CNS): > 100 µM
- TGI (HCT-116 colon): 48.4 µM
- TGI (ACHN renal): 54 µM
- TGI (KM12 colon): 33.2 µM
- TGI (BT-549 breast): > 100 µM
- TGI (A549 NSCLC): > 100 µM
- TGI (OVCAR-3 ovarian): 50.5 µM
- TGI (NCI-H522 lung): 41 µM
- TGI (MDA-MB-231 breast): 32.5 µM
- TGI (RPMI-8226 leukemia): 30.7 µM

SMILES: CCCc1cc(-c2ccc(-c3cc(CCC)c(C=O)[nH]3)s2)[nH]c1C=O
- TGI (IGROV1 ovarian): > 100 µM
- TGI (TK-10 renal): > 100 µM
- TGI (HS 578T breast): > 100 µM
- TGI (PC-3 prostate): > 100 µM
- TGI (NCI-H226 lung): > 100 µM
- TGI (SF-268 CNS): > 100 µM
- TGI (HCT-116 colon): > 100 µM
- TGI (ACHN renal): > 100 µM
- TGI (KM12 colon): > 100 µM
- TGI (BT-549 breast): > 100 µM
- TGI (A549 NSCLC): 22.7 µM
- TGI (OVCAR-3 ovarian): > 100 µM
- TGI (NCI-H522 lung): 17.9 µM
- TGI (MDA-MB-231 breast): > 100 µM
- TGI (RPMI-8226 leukemia): > 100 µM

SMILES: CC(C)(CN)SCc1ccccc1
- TGI (IGROV1 ovarian): > 100 µM
- TGI (TK-10 renal): > 100 µM
- TGI (HS 578T breast): > 100 µM
- TGI (PC-3 prostate): > 100 µM
- TGI (NCI-H226 lung): > 100 µM
- TGI (SF-268 CNS): > 100 µM
- TGI (HCT-116 colon): > 100 µM
- TGI (ACHN renal): > 100 µM
- TGI (KM12 colon): > 100 µM
- TGI (BT-549 breast): > 100 µM
- TGI (A549 NSCLC): > 100 µM
- TGI (OVCAR-3 ovarian): > 100 µM
- TGI (NCI-H522 lung): > 100 µM
- TGI (MDA-MB-231 breast): > 100 µM
- TGI (RPMI-8226 leukemia): > 100 µM

SMILES: OC1(c2ccc3ccccc3c2)c2c(c3ccccc3c3ccccc23)C2=NCCN21 (stereo not given)
- TGI (IGROV1 ovarian): 24 µM
- TGI (TK-10 renal): 35.4 µM
- TGI (HS 578T breast): 24.2 µM
- TGI (PC-3 prostate): > 69.3 µM
- TGI (NCI-H226 lung): > 100 µM
- TGI (SF-268 CNS): 29.2 µM
- TGI (HCT-116 colon): 10.3 µM
- TGI (ACHN renal): > 100 µM
- TGI (KM12 colon): 6.12 µM
- TGI (BT-549 breast): > 37.3 µM
- TGI (A549 NSCLC): > 69.4 µM
- TGI (OVCAR-3 ovarian): 36.9 µM
- TGI (NCI-H522 lung): 24.8 µM
- TGI (MDA-MB-231 breast): > 60.6 µM
- TGI (RPMI-8226 leukemia): 6.87 µM

SMILES: CSc1nc(-c2ccc(Cl)cc2)c(C#N)c(=O)[nH]1
- TGI (IGROV1 ovarian): > 100 µM
- TGI (TK-10 renal): > 100 µM
- TGI (HS 578T breast): > 100 µM
- TGI (PC-3 prostate): > 100 µM
- TGI (NCI-H226 lung): > 100 µM
- TGI (SF-268 CNS): > 100 µM
- TGI (HCT-116 colon): > 100 µM
- TGI (ACHN renal): > 100 µM
- TGI (KM12 colon): > 100 µM
- TGI (BT-549 breast): > 100 µM
- TGI (A549 NSCLC): > 100 µM
- TGI (OVCAR-3 ovarian): > 100 µM
- TGI (NCI-H522 lung): > 100 µM
- TGI (MDA-MB-231 breast): > 100 µM
- TGI (RPMI-8226 leukemia): > 100 µM

SMILES: CCCCCCC(=O)OC[n+]1cccc(-c2c(COC(=O)NC(C)C)c(COC(=O)NC(C)C)c3n2CCC3)c1
- TGI (IGROV1 ovarian): > 86.6 µM
- TGI (TK-10 renal): > 100 µM
- TGI (HS 578T breast): > 100 µM
- TGI (PC-3 prostate): > 100 µM
- TGI (NCI-H226 lung): > 100 µM
- TGI (SF-268 CNS): 69.9 µM
- TGI (HCT-116 colon): > 87.2 µM
- TGI (ACHN renal): 89.1 µM
- TGI (KM12 colon): > 100 µM
- TGI (BT-549 breast): > 96.4 µM
- TGI (A549 NSCLC): > 100 µM
- TGI (OVCAR-3 ovarian): > 100 µM
- TGI (NCI-H522 lung): 43.6 µM
- TGI (MDA-MB-231 breast): > 100 µM
- TGI (RPMI-8226 leukemia): > 100 µM

SMILES: CC1(C)CC2(C)ON=C(c3ccccc3)N2c2ccccc2N1 (stereo not given)
- TGI (IGROV1 ovarian): > 100 µM
- TGI (TK-10 renal): 91.8 µM
- TGI (HS 578T breast): 42.6 µM
- TGI (PC-3 prostate): 42.1 µM
- TGI (NCI-H226 lung): 42.8 µM
- TGI (SF-268 CNS): 48.2 µM
- TGI (HCT-116 colon): 28 µM
- TGI (ACHN renal): 68.8 µM
- TGI (KM12 colon): > 100 µM
- TGI (BT-549 breast): 36.9 µM
- TGI (A549 NSCLC): > 100 µM
- TGI (OVCAR-3 ovarian): 33.7 µM
- TGI (NCI-H522 lung): 47.3 µM
- TGI (MDA-MB-231 breast): 28.7 µM
- TGI (RPMI-8226 leukemia): 93 µM

SMILES: CCOC(=O)NC(=S)NC(C)c1ccccc1 (stereo not given)
- TGI (IGROV1 ovarian): > 100 µM
- TGI (TK-10 renal): > 100 µM
- TGI (HS 578T breast): > 100 µM
- TGI (PC-3 prostate): > 100 µM
- TGI (NCI-H226 lung): > 100 µM
- TGI (SF-268 CNS): > 100 µM
- TGI (HCT-116 colon): > 100 µM
- TGI (ACHN renal): > 100 µM
- TGI (KM12 colon): > 100 µM
- TGI (BT-549 breast): > 100 µM
- TGI (A549 NSCLC): > 100 µM
- TGI (OVCAR-3 ovarian): > 100 µM
- TGI (NCI-H522 lung): > 100 µM
- TGI (MDA-MB-231 breast): > 100 µM
- TGI (RPMI-8226 leukemia): > 100 µM

SMILES: COC(=O)CCC(C)[C@H]1CCC2C3C(C[C@H](OC(C)=O)[C@@]21C)[C@@]1(C)CCC2(C[C@H]1C[C@H]3OC(C)=O)OOC1(CCCCC1)OO2 (stereo not given in full)
- TGI (IGROV1 ovarian): 20.8 µM
- TGI (TK-10 renal): > 100 µM
- TGI (HS 578T breast): 63.5 µM
- TGI (PC-3 prostate): > 100 µM
- TGI (NCI-H226 lung): > 100 µM
- TGI (SF-268 CNS): > 100 µM
- TGI (HCT-116 colon): > 100 µM
- TGI (ACHN renal): 77.3 µM
- TGI (KM12 colon): > 100 µM
- TGI (BT-549 breast): > 100 µM
- TGI (A549 NSCLC): 70.7 µM
- TGI (OVCAR-3 ovarian): > 100 µM
- TGI (NCI-H522 lung): 60.5 µM
- TGI (MDA-MB-231 breast): > 100 µM
- TGI (RPMI-8226 leukemia): 6.43 µM

Source: PubChem BioAssay (NCI)
